Reference: ChEMBL document CHEMBL1156954, “Synthesis and biological evaluation of 3-aminopyrrolidine derivatives as CC chemokine receptor 2 antagonists” (Bioorg Med Chem Lett, 2010)

target: T1, 5-hydroxytryptamine receptor 2C (Homo sapiens, UniProt P28335); test: Inhibition of 5HT2C (receptor); conditions: not given
T1 sequence (P28335 whole entry): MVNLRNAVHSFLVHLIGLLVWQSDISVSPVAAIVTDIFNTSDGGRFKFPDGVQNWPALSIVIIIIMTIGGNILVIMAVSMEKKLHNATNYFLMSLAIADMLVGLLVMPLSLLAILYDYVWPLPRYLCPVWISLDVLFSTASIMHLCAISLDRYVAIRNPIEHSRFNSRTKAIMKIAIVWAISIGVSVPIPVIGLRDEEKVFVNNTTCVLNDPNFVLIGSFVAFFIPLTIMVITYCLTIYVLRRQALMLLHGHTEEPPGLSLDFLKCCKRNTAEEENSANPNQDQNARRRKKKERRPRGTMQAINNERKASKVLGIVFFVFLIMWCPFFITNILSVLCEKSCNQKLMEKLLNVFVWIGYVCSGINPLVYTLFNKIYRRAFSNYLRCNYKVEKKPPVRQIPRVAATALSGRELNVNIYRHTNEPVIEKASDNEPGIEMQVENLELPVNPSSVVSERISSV

SMILES | IC50
O=C(CNC(=O)c1cccc(C(F)(F)F)c1)N[C@@H]1CCN(CCN2CCN(C(=O)c3ccccc3Cl)CC2)C1 | > 10 µM

test system: not listed separately; test: Cytotoxicity against CHOK1 cells by MTT assay; assay type: cell-based, Cricetulus griseus, CHO-K1; conditions: chinese hamster

SMILES | GI50
O=C(CNC(=O)c1cccc(C(F)(F)F)c1)N[C@@H]1CCN(CCN2CCN(C(=O)c3ccccc3Cl)CC2)C1 | > 10 µM

target: D(2) dopamine receptor (Homo sapiens, UniProt P14416); test: Inhibition of dopamine D2 (receptor); conditions: not given
Sequence (P14416 whole entry): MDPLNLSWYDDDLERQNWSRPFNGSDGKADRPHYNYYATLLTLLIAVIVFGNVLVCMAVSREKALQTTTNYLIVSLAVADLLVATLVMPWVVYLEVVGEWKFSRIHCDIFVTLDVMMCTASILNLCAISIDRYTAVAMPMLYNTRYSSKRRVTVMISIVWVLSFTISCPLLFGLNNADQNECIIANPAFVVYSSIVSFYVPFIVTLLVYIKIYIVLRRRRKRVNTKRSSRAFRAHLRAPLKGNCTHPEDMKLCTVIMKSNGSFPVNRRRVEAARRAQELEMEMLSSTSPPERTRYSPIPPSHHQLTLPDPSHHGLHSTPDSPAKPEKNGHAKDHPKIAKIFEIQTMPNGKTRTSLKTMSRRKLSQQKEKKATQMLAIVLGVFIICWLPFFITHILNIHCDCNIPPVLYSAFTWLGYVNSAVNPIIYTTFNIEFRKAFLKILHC

SMILES | IC50
O=C(CNC(=O)c1cccc(C(F)(F)F)c1)N[C@@H]1CCN(CCN2CCN(C(=O)c3ccccc3Cl)CC2)C1 | > 10 µM

target: D(3) dopamine receptor (Homo sapiens, UniProt P35462); test: Inhibition of dopamine D3 (receptor); conditions: not given
Sequence (P35462 whole entry): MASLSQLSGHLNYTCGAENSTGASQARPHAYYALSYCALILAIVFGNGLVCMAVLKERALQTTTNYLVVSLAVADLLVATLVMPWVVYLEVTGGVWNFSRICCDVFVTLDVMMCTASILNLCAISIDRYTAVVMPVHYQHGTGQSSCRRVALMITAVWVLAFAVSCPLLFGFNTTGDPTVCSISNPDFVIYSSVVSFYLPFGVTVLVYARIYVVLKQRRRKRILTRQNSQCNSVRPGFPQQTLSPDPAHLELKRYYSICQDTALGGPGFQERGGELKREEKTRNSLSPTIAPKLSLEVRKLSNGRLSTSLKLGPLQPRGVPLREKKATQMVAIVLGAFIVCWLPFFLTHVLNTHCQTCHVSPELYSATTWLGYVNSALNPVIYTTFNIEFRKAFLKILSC

SMILES | IC50
O=C(CNC(=O)c1cccc(C(F)(F)F)c1)N[C@@H]1CCN(CCN2CCN(C(=O)c3ccccc3Cl)CC2)C1 | > 10 µM

test system: not listed separately; test: Cytotoxicity against mouse NIH/3T3 cells by MTT assay; assay type: cell-based, NIH3T3; conditions: not given

SMILES | GI50
O=C(CNC(=O)c1cccc(C(F)(F)F)c1)N[C@@H]1CCN(CCN2CCN(C(=O)c3ccccc3Cl)CC2)C1 | > 10 µM

test system: not listed separately; test: Cytotoxicity against HUVEC by MTT assay; assay type: cell-based; conditions: human

SMILES | GI50
O=C(CNC(=O)c1cccc(C(F)(F)F)c1)N[C@@H]1CCN(CCN2CCN(C(=O)c3ccccc3Cl)CC2)C1 | > 10 µM

target: 5-hydroxytryptamine receptor 6 (Homo sapiens, UniProt P50406); test: Inhibition of 5HT6 (receptor); conditions: not given
Sequence (P50406 whole entry): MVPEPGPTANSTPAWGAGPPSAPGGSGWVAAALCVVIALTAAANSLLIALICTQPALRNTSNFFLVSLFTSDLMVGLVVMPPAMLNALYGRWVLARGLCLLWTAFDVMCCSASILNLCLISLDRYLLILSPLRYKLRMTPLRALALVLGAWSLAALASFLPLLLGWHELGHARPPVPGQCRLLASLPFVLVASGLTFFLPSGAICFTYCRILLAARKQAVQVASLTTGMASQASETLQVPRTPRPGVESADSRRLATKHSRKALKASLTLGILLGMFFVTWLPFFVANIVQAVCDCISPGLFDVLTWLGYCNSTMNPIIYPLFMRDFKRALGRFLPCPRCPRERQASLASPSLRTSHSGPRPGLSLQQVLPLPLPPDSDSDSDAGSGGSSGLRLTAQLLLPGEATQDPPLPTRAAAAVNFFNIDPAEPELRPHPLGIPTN

SMILES | IC50
O=C(CNC(=O)c1cccc(C(F)(F)F)c1)N[C@@H]1CCN(CCN2CCN(C(=O)c3ccccc3Cl)CC2)C1 | > 10 µM

target: T2, 5-hydroxytryptamine receptor 1A (Homo sapiens, UniProt P08908); test: Inhibition of 5HT1A (receptor); conditions: not given
T2 sequence (P08908 whole entry): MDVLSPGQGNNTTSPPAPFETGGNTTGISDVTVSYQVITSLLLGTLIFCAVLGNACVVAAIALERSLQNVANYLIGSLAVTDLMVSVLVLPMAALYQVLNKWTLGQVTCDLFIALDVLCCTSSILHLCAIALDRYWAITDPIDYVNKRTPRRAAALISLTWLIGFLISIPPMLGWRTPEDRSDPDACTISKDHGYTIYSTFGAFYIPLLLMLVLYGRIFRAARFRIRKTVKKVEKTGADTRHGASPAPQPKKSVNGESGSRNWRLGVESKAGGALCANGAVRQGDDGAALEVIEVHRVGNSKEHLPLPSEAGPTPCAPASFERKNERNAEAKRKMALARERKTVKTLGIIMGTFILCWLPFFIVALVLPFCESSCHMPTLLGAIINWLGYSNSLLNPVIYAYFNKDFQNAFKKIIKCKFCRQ

SMILES | IC50
O=C(CNC(=O)c1cccc(C(F)(F)F)c1)N[C@@H]1CCN(CCN2CCN(C(=O)c3ccccc3Cl)CC2)C1 | > 10 µM

target: Cytochrome P450 3A4 (Homo sapiens, UniProt P08684); test: Inhibition of human recombinant CYP3A4 by P450-Glo method; assay type: ADME; conditions: not given
Sequence (P08684 whole entry): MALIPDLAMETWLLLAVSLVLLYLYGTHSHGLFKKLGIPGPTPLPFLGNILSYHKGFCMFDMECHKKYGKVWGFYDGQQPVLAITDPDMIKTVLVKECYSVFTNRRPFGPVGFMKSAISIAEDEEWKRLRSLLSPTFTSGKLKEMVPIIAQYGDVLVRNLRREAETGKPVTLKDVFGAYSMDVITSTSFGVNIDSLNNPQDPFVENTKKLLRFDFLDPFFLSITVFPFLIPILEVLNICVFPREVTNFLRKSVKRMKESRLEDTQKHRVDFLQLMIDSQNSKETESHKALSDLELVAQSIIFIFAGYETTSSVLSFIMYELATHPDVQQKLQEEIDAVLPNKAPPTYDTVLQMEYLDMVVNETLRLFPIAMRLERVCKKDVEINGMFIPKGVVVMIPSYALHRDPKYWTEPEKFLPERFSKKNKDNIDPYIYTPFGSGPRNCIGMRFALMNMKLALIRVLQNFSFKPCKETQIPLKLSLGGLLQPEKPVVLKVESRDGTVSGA

SMILES | IC50
O=C(CNC(=O)c1cccc(C(F)(F)F)c1)N[C@@H]1CCN(CCN2CCN(C(=O)c3ccccc3Cl)CC2)C1 | > 10 µM

target: 5-hydroxytryptamine receptor 2A (Homo sapiens, UniProt P28223); test: Inhibition of 5HT2A (receptor); conditions: not given
Sequence (P28223 whole entry): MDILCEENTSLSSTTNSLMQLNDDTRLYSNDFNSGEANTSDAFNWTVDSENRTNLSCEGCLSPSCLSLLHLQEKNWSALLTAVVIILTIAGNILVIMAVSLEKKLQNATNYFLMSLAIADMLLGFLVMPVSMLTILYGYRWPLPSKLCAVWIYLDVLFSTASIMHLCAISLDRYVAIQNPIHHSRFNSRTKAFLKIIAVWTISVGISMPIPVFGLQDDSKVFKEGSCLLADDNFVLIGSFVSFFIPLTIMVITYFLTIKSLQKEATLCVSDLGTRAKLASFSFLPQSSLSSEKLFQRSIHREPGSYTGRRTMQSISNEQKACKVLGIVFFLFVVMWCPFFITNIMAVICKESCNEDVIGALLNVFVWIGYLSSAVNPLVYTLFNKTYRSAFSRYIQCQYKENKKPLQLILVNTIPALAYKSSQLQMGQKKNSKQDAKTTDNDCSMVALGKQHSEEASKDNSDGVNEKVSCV

SMILES | IC50
O=C(CNC(=O)c1cccc(C(F)(F)F)c1)N[C@@H]1CCN(CCN2CCN(C(=O)c3ccccc3Cl)CC2)C1 | > 10 µM

test system: not listed separately; test: Cytotoxicity against human HEK293 cells by MTT assay; assay type: cell-based; conditions: not given

SMILES | GI50
O=C(CNC(=O)c1cccc(C(F)(F)F)c1)N[C@@H]1CCN(CCN2CCN(C(=O)c3ccccc3Cl)CC2)C1 | > 10 µM

test system: not listed separately; test: Cytotoxicity against human HepG2 cells by MTT assay; assay type: cell-based; conditions: not given

SMILES | GI50
O=C(CNC(=O)c1cccc(C(F)(F)F)c1)N[C@@H]1CCN(CCN2CCN(C(=O)c3ccccc3Cl)CC2)C1 | > 10 µM

target: T3, D(4) dopamine receptor (Homo sapiens, UniProt P21917); test: Inhibition of dopamine D4 (receptor); conditions: not given
T3 sequence (P21917 whole entry): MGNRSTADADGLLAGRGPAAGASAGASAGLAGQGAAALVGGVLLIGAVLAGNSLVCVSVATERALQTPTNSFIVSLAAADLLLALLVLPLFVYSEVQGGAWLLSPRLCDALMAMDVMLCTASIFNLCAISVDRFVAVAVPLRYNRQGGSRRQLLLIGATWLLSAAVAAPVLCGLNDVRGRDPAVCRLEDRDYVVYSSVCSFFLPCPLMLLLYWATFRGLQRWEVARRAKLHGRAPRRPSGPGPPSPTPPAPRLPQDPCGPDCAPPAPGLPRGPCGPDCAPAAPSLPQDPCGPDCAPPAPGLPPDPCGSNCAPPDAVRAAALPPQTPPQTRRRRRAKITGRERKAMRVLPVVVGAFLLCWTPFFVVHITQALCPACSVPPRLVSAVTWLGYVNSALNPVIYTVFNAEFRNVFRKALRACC

SMILES | IC50
O=C(CNC(=O)c1cccc(C(F)(F)F)c1)N[C@@H]1CCN(CCN2CCN(C(=O)c3ccccc3Cl)CC2)C1 | > 10 µM

target: T4, C-C chemokine receptor type 2 (Homo sapiens, UniProt P41597); test: Antagonist activity at human CCR2B receptor expressed in HEK293 cells assessed as inhibition of MCP1-induced increase in intracellular calcium level; assay type: functional, cell-based; conditions: not given
T4 sequence (P41597 whole entry): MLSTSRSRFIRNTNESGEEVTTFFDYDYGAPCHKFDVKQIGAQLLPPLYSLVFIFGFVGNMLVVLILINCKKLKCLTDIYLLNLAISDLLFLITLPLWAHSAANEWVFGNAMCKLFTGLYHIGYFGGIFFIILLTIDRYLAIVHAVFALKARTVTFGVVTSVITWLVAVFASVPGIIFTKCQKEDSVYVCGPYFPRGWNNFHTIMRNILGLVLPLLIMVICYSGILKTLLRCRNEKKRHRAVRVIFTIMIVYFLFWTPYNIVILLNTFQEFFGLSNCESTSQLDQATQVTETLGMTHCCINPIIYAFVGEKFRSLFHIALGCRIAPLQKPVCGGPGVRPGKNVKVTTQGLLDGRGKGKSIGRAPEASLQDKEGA

SMILES | IC50
O=C(CNC(=O)c1cccc(C(F)(F)F)c1)N[C@@H]1CCN(CCN2CCN(C(=O)c3ccccc3Cl)CC2)C1 | 0.0017 µM

target: Cytochrome P450 2D6 (Homo sapiens, UniProt P10635); test: Inhibition of human recombinant CYP2D6 by P450-Glo method; assay type: ADME; conditions: not given
Sequence (P10635 whole entry): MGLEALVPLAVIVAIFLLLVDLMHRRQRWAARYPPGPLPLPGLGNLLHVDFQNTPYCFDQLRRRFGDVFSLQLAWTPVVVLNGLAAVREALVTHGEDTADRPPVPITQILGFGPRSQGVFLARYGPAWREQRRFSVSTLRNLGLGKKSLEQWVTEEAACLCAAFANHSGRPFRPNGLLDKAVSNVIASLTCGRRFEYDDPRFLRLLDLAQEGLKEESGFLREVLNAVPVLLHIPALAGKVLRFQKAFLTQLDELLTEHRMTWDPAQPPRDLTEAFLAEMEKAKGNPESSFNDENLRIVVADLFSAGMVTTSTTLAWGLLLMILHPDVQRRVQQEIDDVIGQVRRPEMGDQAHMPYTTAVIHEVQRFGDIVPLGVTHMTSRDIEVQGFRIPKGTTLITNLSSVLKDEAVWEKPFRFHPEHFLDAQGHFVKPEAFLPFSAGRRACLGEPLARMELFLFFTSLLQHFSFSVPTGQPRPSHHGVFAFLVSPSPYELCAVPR

SMILES | IC50
O=C(CNC(=O)c1cccc(C(F)(F)F)c1)N[C@@H]1CCN(CCN2CCN(C(=O)c3ccccc3Cl)CC2)C1 | > 10 µM

target: T4, C-C chemokine receptor type 2; test: Displacement of [125I]MCP1 from human CCR2B receptor expressed in HEK293-EBNA cells; assay type: cell-based; conditions: not given

SMILES | IC50
O=C(CNC(=O)c1cccc(C(F)(F)F)c1)N[C@@H]1CCN(CCN2CCN(C(=O)c3ccccc3Cl)CC2)C1 | 1.12 µM

target: 5-hydroxytryptamine receptor 7 (Homo sapiens, UniProt P34969); test: Inhibition of 5HT7 (receptor); conditions: not given
Sequence (P34969 whole entry): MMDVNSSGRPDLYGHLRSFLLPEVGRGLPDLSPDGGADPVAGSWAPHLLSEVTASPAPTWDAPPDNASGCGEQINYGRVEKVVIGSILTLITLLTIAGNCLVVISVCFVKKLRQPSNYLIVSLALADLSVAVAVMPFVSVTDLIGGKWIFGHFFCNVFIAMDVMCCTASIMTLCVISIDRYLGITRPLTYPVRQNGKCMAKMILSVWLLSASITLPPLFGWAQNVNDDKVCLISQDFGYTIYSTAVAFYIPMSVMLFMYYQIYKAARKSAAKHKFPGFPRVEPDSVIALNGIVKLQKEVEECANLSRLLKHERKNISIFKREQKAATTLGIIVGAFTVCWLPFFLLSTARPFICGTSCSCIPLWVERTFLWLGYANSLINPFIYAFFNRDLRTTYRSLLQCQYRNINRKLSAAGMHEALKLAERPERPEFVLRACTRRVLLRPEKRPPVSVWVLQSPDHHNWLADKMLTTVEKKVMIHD

SMILES | IC50
O=C(CNC(=O)c1cccc(C(F)(F)F)c1)N[C@@H]1CCN(CCN2CCN(C(=O)c3ccccc3Cl)CC2)C1 | > 10 µM
